Source: PubChem BioAssay AID330 (DTP/NCI, 2004)
“And” between values parts separate entries of the source, which are not always exact repeats. Equal entries are not always repeated. Inconclusive results and toxic doses are left out.

Test system: P388 leukemia ip, CD2F1 mice, survival T/C
Assay: NCI In Vivo Anticancer Drug Screen. Data for tumor model P388 Leukemia (intraperitoneal) in CD2F1 (CDF1) mice
Conditions: endpoint: median survival time, higher = longer survival
Method in brief: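 Mice carrying the transplanted tumor received test compound or vehicle. Survival was recorded in each group, and the value is the treated-group measurement divided by that of the vehicle-treated control group.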

[1] = dose: 100.0 mg/kg/injection, schedule: Q01DX009 (ip), vehicle: saline with Tween-80
[2] = dose: 200.0 mg/kg/injection, schedule: Q01DX009 (ip), vehicle: saline with Tween-80

CNC(=O)OCc1c(COC(=O)NC)c(-c2ccc(-c3ccccc3)cc2)n(C)c1C
T/C (dose: 2.5 mg/kg/injection, schedule: Q01DX009 (ip), vehicle: distilled water + Tween-80): 154 % of control
T/C (dose: 5.0 mg/kg/injection, schedule: Q01DX009 (ip), vehicle: distilled water + Tween-80): 152 % of control
T/C (dose: 10.0 mg/kg/injection, schedule: Q01DX009 (ip), vehicle: distilled water + Tween-80): 151 % of control
T/C (dose: 15.0 mg/kg/injection, schedule: Q01DX009 (ip), vehicle: distilled water + Tween-80): 153 % of control
T/C (dose: 20.0 mg/kg/injection, schedule: Q01DX009 (ip), vehicle: distilled water + Tween-80): 94 % of control

Cc1cc(=O)n2c(c1)[nH]c1ccccc12
T/C (dose: 100.0 mg/kg/injection, schedule: Q01DX001 (ip), vehicle: Klucel (hydroxypropylcellulose) (HPC)): 89 % of control
T/C (dose: 200.0 mg/kg/injection, schedule: Q01DX001 (ip), vehicle: Klucel (hydroxypropylcellulose) (HPC)): 90 % of control
T/C (dose: 400.0 mg/kg/injection, schedule: Q01DX001 (ip), vehicle: Klucel (hydroxypropylcellulose) (HPC)): 88 % of control

CC(C)(C)N1OC1c1ccccc1 (configuration not stated)
T/C (dose: 25.0 mg/kg/injection, schedule: Q04DX003 (ip), vehicle: saline with Tween-80): 108 % of control
T/C (dose: 50.0 mg/kg/injection, schedule: Q04DX003 (ip), vehicle: saline with Tween-80): 105 % of control
T/C (dose: 100.0 mg/kg/injection, schedule: Q04DX003 (ip), vehicle: saline with Tween-80): 108 % of control
T/C (dose: 200.0 mg/kg/injection, schedule: Q04DX003 (ip), vehicle: saline with Tween-80): 108 % of control

CCOC(=O)NCNC(=O)OCC
T/C (dose: 50.0 mg/kg/injection, schedule: Q01DX009 (ip), vehicle: Klucel (hydroxypropylcellulose) (HPC)): 100 % of control
T/C (dose: 100.0 mg/kg/injection, schedule: Q01DX009 (ip), vehicle: Klucel (hydroxypropylcellulose) (HPC)): 102 % of control
T/C (dose: 100.0 mg/kg/injection, schedule: Q04DX002 (ip), vehicle: Klucel (hydroxypropylcellulose) (HPC)): 117 % of control
T/C (dose: 200.0 mg/kg/injection, schedule: Q04DX002 (ip), vehicle: Klucel (hydroxypropylcellulose) (HPC)): 107 % of control
T/C (dose: 400.0 mg/kg/injection, schedule: Q04DX002 (ip), vehicle: Klucel (hydroxypropylcellulose) (HPC)): 110 % of control

CC[C@@]1(O)C[C@H](OC2CC(N(C)C)C(OC3CC(O)C(O[C@@H]4O[C@@H](C)C(=O)C=C4N)C(C)O3)C(C)O2)c2c(cc3c(c2O)C(=O)c2c(O)ccc(O)c2C3=O)[C@H]1C(=O)OC (some centres not stated)
T/C (dose: 0.19 mg/kg/injection, schedule: Q01DX009 (ip), vehicle: saline): 150 % of control
T/C (dose: 0.38 mg/kg/injection, schedule: Q01DX009 (ip), vehicle: saline with Tween-80): 161 % of control
T/C (dose: 0.75 mg/kg/injection, schedule: Q01DX009 (ip), vehicle: saline with Tween-80): 175 % of control
T/C (dose: 0.75 mg/kg/injection, schedule: Q01DX009 (ip), vehicle: saline): 163 % of control
T/C (dose: 1.5 mg/kg/injection, schedule: Q01DX009 (ip), vehicle: saline with Tween-80): 89 % of control
T/C (dose: 1.5 mg/kg/injection, schedule: Q01DX009 (ip), vehicle: saline): 182 % of control
T/C (dose: 3.0 mg/kg/injection, schedule: Q01DX009 (ip), vehicle: saline): 94 % of control
T/C (dose: 1.0 micrograms/kg/injection, schedule: Q01DX005 (ip), vehicle: Klucel (hydroxypropylcellulose) (HPC)): 102 % of control
T/C (dose: 2.0 micrograms/kg/injection, schedule: Q01DX005 (ip), vehicle: Klucel (hydroxypropylcellulose) (HPC)): 106 % of control
T/C (dose: 4.0 micrograms/kg/injection, schedule: Q01DX005 (ip), vehicle: Klucel (hydroxypropylcellulose) (HPC)): 102 % of control
T/C (dose: 8.0 micrograms/kg/injection, schedule: Q01DX005 (ip), vehicle: Klucel (hydroxypropylcellulose) (HPC)): 102 % of control

CCOC1(OCC)N(S(=O)(=O)c2ccc(C)cc2)C(=O)C(=O)N1S(=O)(=O)c1ccc(C)cc1
T/C (dose: 100.0 mg/kg/injection, schedule: Q04DX002 (ip), vehicle: saline): 100 % of control
T/C (dose: 200.0 mg/kg/injection, schedule: Q04DX002 (ip), vehicle: saline): 106 % of control
T/C (dose: 400.0 mg/kg/injection, schedule: Q04DX002 (ip), vehicle: saline): 103 % of control

O=C(O)C(O)C(O)C(=O)O.O=C(O)C(O)C(O)C(=O)O.[O]=[V].[O]=[V] (configuration not stated)
T/C (dose: 12.5 mg/kg/injection, schedule: Q01DX009 (ip), vehicle: saline): 110 % of control
T/C (dose: 15.0 mg/kg/injection, schedule: Q01DX009 (ip), vehicle: saline): 102 % of control
T/C (dose: 25.0 mg/kg/injection, schedule: Q01DX009 (ip), vehicle: saline): 110 % of control
T/C (dose: 25.0 mg/kg/injection, schedule: Q04DX003 (ip), vehicle: saline sonified): 100 % of control
T/C (dose: 30.0 mg/kg/injection, schedule: Q01DX009 (ip), vehicle: saline): 106 % of control
T/C (dose: 50.0 mg/kg/injection, schedule: Q04DX003 (ip), vehicle: saline sonified): 104 % of control

O=C1CSC(c2ccsc2)N1c1nncs1 (configuration not stated)
T/C (dose: 60.0 mg/kg/injection, schedule: Q01DX005 (ip), vehicle: Klucel (hydroxypropylcellulose) (HPC)): 101 % of control
T/C (dose: 120.0 mg/kg/injection, schedule: Q01DX005 (ip), vehicle: Klucel (hydroxypropylcellulose) (HPC)): 100 % of control
T/C (dose: 240.0 mg/kg/injection, schedule: Q01DX005 (ip), vehicle: Klucel (hydroxypropylcellulose) (HPC)): 108 % of control

CCC[CH2][Sn]([CH2]CCC)([O]C(=O)CCC(C)=O)[O]C(=O)CCC(C)=O
T/C (dose: 3.12 mg/kg/injection, schedule: Q01DX009 (ip), vehicle: Klucel (hydroxypropylcellulose) (HPC)): 118 % of control and 119 % of control
T/C (dose: 12.5 mg/kg/injection, schedule: Q01DX009 (ip), vehicle: Klucel (hydroxypropylcellulose) (HPC)): 163 % of control

CCCCOP(=O)(N1CC1(C)C)N1CC1(C)C (configuration not stated)
T/C (dose: 2.0 mg/kg/injection, schedule: Q01DX009 (ip), vehicle: saline): 104 % of control and 115 % of control and 96 % of control
T/C (dose: 4.0 mg/kg/injection, schedule: Q01DX009 (ip), vehicle: saline): 115 % of control and 117 % of control and 98 % of control
T/C (dose: 8.0 mg/kg/injection, schedule: Q01DX009 (ip), vehicle: saline): 108 % of control and 111 % of control
T/C (dose: 10.0 mg/kg/injection, schedule: Q01DX001 (ip), vehicle: saline): 105 % of control and 111 % of control and 115 % of control
T/C (dose: 20.0 mg/kg/injection, schedule: Q01DX001 (ip), vehicle: saline): 101 % of control and 102 % of control
T/C (dose: 40.0 mg/kg/injection, schedule: Q01DX001 (ip), vehicle: saline): 105 % of control and 117 % of control

CCO/C=C1/N=C(c2ccc(Cl)c([N+](=O)[O-])c2)OC1=O
T/C (dose: 60.0 mg/kg/injection, schedule: Q01DX005 (ip), vehicle: saline with Tween-80): 108 % of control
T/C (dose: 120.0 mg/kg/injection, schedule: Q01DX005 (ip), vehicle: saline with Tween-80): 106 % of control
T/C (dose: 240.0 mg/kg/injection, schedule: Q01DX005 (ip), vehicle: saline with Tween-80): 107 % of control

CC(C(=O)N1CCCC1)C(O)c1ccccc1 (configuration not stated)
T/C (dose: 50.0 mg/kg/injection, schedule: Q01DX005 (ip), vehicle: saline): 105 % of control
T/C (dose: 100.0 mg/kg/injection, schedule: Q01DX005 (ip), vehicle: saline): 107 % of control
T/C (dose: 200.0 mg/kg/injection, schedule: Q01DX005 (ip), vehicle: saline): 98 % of control

O=C1Cc2ccccc2C(=O)N1NCCO
T/C (dose: 100.0 mg/kg/injection, schedule: Q01DX001 (ip), vehicle: saline with Tween-80): 103 % of control
T/C (dose: 200.0 mg/kg/injection, schedule: Q01DX001 (ip), vehicle: saline with Tween-80): 102 % of control
T/C (dose: 400.0 mg/kg/injection, schedule: Q01DX001 (ip), vehicle: saline with Tween-80): 94 % of control

O=c1c(Cl)c2cc3c(cc2c2ccccc12)nc1ccccc1n3C1CCCCC1
T/C (dose: 50.0 mg/kg/injection, schedule: Q01DX009 (ip), vehicle: saline with Tween-80): 88 % of control
T/C [1]: 94 % of control
T/C [2]: 98 % of control

O=C(OC(c1ccccc1)(C(F)(F)F)C(F)(F)F)c1ccccc1Sc1ccccc1
T/C [1]: 95 % of control
T/C [2]: 90 % of control
T/C (dose: 400.0 mg/kg/injection, schedule: Q01DX009 (ip), vehicle: saline with Tween-80): 95 % of control

C=C(C(=O)OC)C1C=CC2OC(C)(C)OCC2O1 (configuration not stated)
T/C (dose: 60.0 mg/kg/injection, schedule: Q01DX005 (ip), vehicle: saline): 113 % of control
T/C (dose: 120.0 mg/kg/injection, schedule: Q01DX005 (ip), vehicle: saline): 106 % of control
T/C (dose: 240.0 mg/kg/injection, schedule: Q01DX005 (ip), vehicle: saline): 109 % of control

NCCN.O=S(=O)([O-])[O-].[Cu+2].[OH3+].[OH3+]
T/C (dose: 6.25 mg/kg/injection, schedule: Q04DX002 (ip), vehicle: saline): 100 % of control
T/C (dose: 12.5 mg/kg/injection, schedule: Q04DX002 (ip), vehicle: saline): 100 % of control
T/C (dose: 25.0 mg/kg/injection, schedule: Q04DX002 (ip), vehicle: saline): 100 % of control

CCC(c1ccc(O)cc1)c1cc2c(cc1OCC(=O)O)OCO2 (configuration not stated)
T/C (dose: 50.0 mg/kg/injection, schedule: Q01DX005 (ip), vehicle: saline with Tween-80): 102 % of control
T/C (dose: 100.0 mg/kg/injection, schedule: Q01DX005 (ip), vehicle: saline with Tween-80): 93 % of control
T/C (dose: 200.0 mg/kg/injection, schedule: Q01DX005 (ip), vehicle: saline with Tween-80): 99 % of control
